Laboratory results reported in patent publication US11660279B2, “Therapeutic agents for treating restless leg syndrome” (INTRABIO LTD, priority 2018, dated 2023).

Experiments:
[1] = tested on: patients with restless leg syndrome (RLS); experiment: International Restless Legs Syndrome Rating Scale score (IRLS) in patient case studies; type: in vivo, human; parameters: key: IRLS score, 0 (no symptoms) to 40; >30 very severe
From the text: RLS severity varies and can be measured using one or more of several scales. A widely reported rating scale known as the International Restless Legs Syndrome Study Group Rating Scale (“IRLS”) was developed by the International Restless Legs Syndrome Study Group (“IRLSSG”) (Walters et al., Validation of the 15 International Restless Legs Syndrome Study Group rating scale for restless legs syndrome. Sleep medicine. 2003 Apr 01; 4(2)1 21-32). The IRLS is a 10-item scale with scores ranging from 0 (no symptoms) to 40. Scores>30 are considered very severe, severe (Score 21-30), moderate (scores 11-20) and […], mild. Use of the scale is common for clinical assessment, research and therapeutic trials with RLS.
Serum creatine kinase activity was only mildly elevated at up to 400 IU/L. The patient was evaluated using the RLS diagnostic index (RLS-DI) (see Walters et al., Sleep Med 2003; 4(2):121-132;). The patient's International Restless Legs Syndrome Rating Scale score (IRLS) was 36, and thus a severe RLS was diagnosed. The patient was started on therapy with acetyl-DL-leucine at a dose of 3 g per day for the first week, followed by a dose of 5 g per day for the second week onwards. Within 14 days on acetyl-DL-leucine, the IRLS dropped to 26, and after another 5 weeks, the IRLS declined to 9. […] Re-introduction of the treatment re-declined the score to 8 after 2 weeks. Continuation of treatment over more than 22 weeks stabilized the IRLS score at 8.
(§1) The patient in this case study was a person showing proximal weakness of the lower limb. […] Upon consultation, they reported no sensory symptoms but complained of a restless leg syndrome at night and during resting periods of the day, occurring over the course of the last eight years. […] Serum creatine kinase activity was mildly elevated at 300 IU/L. Iron measurements and all additional lab investigations were normal. The patient was evaluated using the RLS-DI and the patient's IRLS was 32, and thus a moderate to severe RLS was diagnosed. The patient was started on therapy with acetyl-DL-leucine at a dose of 3 g per day for the first week, followed by a dose of 5 g per day for the second week onwards. Within 14 days on acetyl-DL-leucine, the IRLS dropped to 22, and after another 5 weeks, the IRLS declined to 7. Continuation of treatment over more than 28 weeks stabilized the IRLS score at 8.
(§2) The patient in this case study was a person showing mild proximal weakness of the upper and lower limbs slowly progressive. The patient had been diagnosed (genetically confirmed) with McArdle myopathy about 16 years ago. Upon consultation, they reported no sensory symptoms but complained about a severe fatigue and reduced stamina. The patient further reported a restless leg syndrome at night and during resting periods of the day, occurring over the course of the last 12 years. […] Serum creatine kinase activity was mildly elevated at 200 IU/L; however, the patient had 5 episodes of rhabdomyolysis during the past 20 years. Repeated iron measurements and all additional lab investigations were normal. The patient was evaluated using the RLS-DI and the patient's IRLS was 34, and thus a severe RLS was diagnosed. The patient was started on therapy with acetyl-DL-leucine at a dose of 3 g per day for the first week, followed by a dose of 5 g per day for the second week onwards. Within 21 days on acetyl-DL-leucine, the IRLS dropped to 20, and after another 10 weeks, the IRLS declined to 10. Continuation of treatment over more than 30 weeks stabilized the IRLS score at 10. In addition, the patient's fatigue declined (Fatigue Severit Scale: 9 (minimum) to 63 (maximum)) from 53 to 28.
The patient in this case study was a person showing symptoms of RLS and with RLS of unknown etiology. […]

[2] = tested on: patients with cerebellar ataxia / Niemann-Pick Type C; details: cited from earlier work
[3] = tested on: patient with RLS and McArdle myopathy; experiment: Fatigue Severity Scale in patient case study; type: in vivo, human; details: Patient 3; scale 9 (minimum) to 63 (maximum); declined from 53
From the text: as §2

[4] = tested on: patients with restless leg syndrome (RLS); experiment: Symptom relief of RLS by pre-treatment (patient history); type: in vivo, human
Experimental: as §1, §2
The patient in this case study was a person showing symptoms of RLS and with RLS of unknown etiology. Upon consultation, they reported no sensory symptoms but complained of a restless leg syndrome at night and during resting periods of the day, occurring over the course of the at least 15 years. […] Iron measurements and all additional lab investigations were normal. The patient was evaluated using the RLS-DI and the patient's IRLS was 32, and thus a moderate to severe RLS was diagnosed. The patient was started on therapy with acetyl-DL-leucine at a dose of 3 g per day for the first week, followed by a dose of 5 g per day for the second week onwards. Within 14 days on acetyl-DL-leucine, the IRLS dropped to 8, and after another 2 weeks, the IRLS declined to 6. Continuation of treatment over more than 4 weeks stabilized the IRLS score at 6.

[5] = tested on: rat model of an acute unilateral labyrinthectomy; details: Zwergal 2016, Gunther 2015; cited from earlier work
[6] = Patient 2, before acetyl-DL-leucine
[7] = Patient 3, before acetyl-DL-leucine
[8] = Patient 4, before acetyl-DL-leucine

`CC(=O)NC(CC(C)C)C(=O)O` (racemic) [acetyl-DL-leucine] gave an IRLS ([1]; Patient 1, baseline 36, after another 5 weeks on 5 g per day) of 9, an IRLS ([1]; Patient 1, baseline IRLS 36, 3 g per day first week then 5 g per day, within 14 days) of 26 and an IRLS ([1]; Patient 1, after interruption of 4 weeks of the treatment after week 12) of 28. For the same compound, the IRLS ([1]; Patient 1, continuation of treatment over more than 22 weeks) was 8, the IRLS ([1]; Patient 1, re-introduction of the treatment, after 2 weeks) was 8 and the IRLS ([1]; Patient 2, baseline 32, after another 5 weeks) was 7. The IRLS ([1]; Patient 2, baseline IRLS 32, 3 g per day first week then 5 g per day, within 14 days) was 22, the IRLS ([1]; Patient 2, continuation of treatment over more than 28 weeks) was 8 and the IRLS ([1]; Patient 3, baseline 34, after another 10 weeks) was 10. The IRLS ([1]; Patient 3, baseline IRLS 34, 3 g per day first week then 5 g per day, within 21 days) was 20, the IRLS ([1]; Patient 3, continuation of treatment over more than 30 weeks) was 10 and the IRLS ([1]; Patient 4, baseline 32, after another 2 weeks) was 6. The IRLS ([1]; Patient 4, baseline IRLS 32, 3 g per day first week then 5 g per day, within 14 days) was 8, the IRLS ([1]; Patient 4, continuation of treatment over more than 4 weeks) was 6 and the “brain metabolism (PET)” value ([2]; PET study in patients with ataxia, Becker-Bense et al. (2015)) was “increased metabolism in the midbrain and lower brainstem in responders”. For the same compound, the cerebellar ataxia benefit ([2]; another case series, Pelz et al. (2015)) was “did not find benefit”, the cerebellar ataxia symptoms ([2]; case series with cerebellar patients, Strupp et al. (2013)) was “symptomatic improvement of cerebellar ataxia” and the ataxia symptoms ([2]; one-month study, 12 patients with Niemann-Pick Type C, Bremova et al. (2015)) was “symptomatic improvement of ataxia was shown”. The temporal gait variability ([2]; quantitative gait analysis, patients with cerebellar ataxia, Schniepp et al. (2015)) was “improved temporal gait variability” and the “Fatigue Severit Scale” value [3] was 28.

In the case of `N[C@@H](Cc1ccc(O)c(O)c1)C(=O)O` [L-dopa], the “RLS symptom relief by pre-treatment” value [4, 6] is reported as “without sustained symptom relief”, the “RLS symptom relief by pre-treatment” value [4, 7] is reported as “without sustained symptom relief” and the “RLS symptom relief by pre-treatment” value [4, 8] is reported as “without sustained relief”.

In the case of `CC(=O)N[C@@H](CC(C)C)C(=O)O` [N-acetyl-L-leucine], the postural compensation [5] is given as “significant effect”.

With `CC(C)C[C@H](CN)CC(=O)O` [pregabaline] the “RLS symptom relief by pre-treatment” value [4, 6] was “without sustained symptom relief”, the “RLS symptom relief by pre-treatment” value [4, 7] was “without sustained symptom relief” and the “RLS symptom relief by pre-treatment” value [4, 8] was “without sustained relief”.
